Like-named read-outs stand apart in the source and are kept apart here.

Experimental findings from patent publication US20190364896A1, “SYNERGISTIC WEED CONTROL FROM APPLICATIONS OF PYRIDINE CARBOXYLIC ACID HERBICIDES AND ALS INHIBITORS” (Dow AgroSciences LLC, priority 2014, published 2019) are described below.

Assay in all cases: Postemergence herbicidal activity, greenhouse trial (visual injury 0-100%)
Holding throughout (assay type): in vivo

The subject of experiment [1] is barnyardgrass (Echinochloa crus-galli, ECHCG). The settings on record: Echinochloa crus-galli, post-emergence, read-out: % visual injury Obs. On the procedure:
(§1) Seeds of the desired test plant species were planted in Sun Gro MetroMix® 306 planting mixture, which typically has a pH of 6.0 to 6.8 and an organic matter content of about 30 percent, in plastic pots with a surface area of 103.2 square centimeters (cm^2). […] The plants were grown for 7-36 days (d) in a greenhouse with an approximate 14-hour (h) photoperiod which was maintained at about 23° C. during the day and 22° C. during the night. Nutrients and water were added on a regular basis and supplemental lighting was provided with overhead metal halide 1000-Watt lamps as necessary. The plants were employed for testing when they reached the second or third true leaf stage.
(§2) Weighed amounts of technical or formulated material (emulsifiable concentrate (EC) or soluble concentrate (SL)) were dissolved in a volume of 97:3 volume per volume (v/v) acetone/dimethyl sulfoxide (DMSO) to stock solutions. […] The concentrated stock solutions were diluted with an aqueous mixture of 1.5% v/v of Agri-dex crop oil concentrate to provide the appropriate application rates. Compound requirements are based upon a 12 milliliter (mL) application volume at a rate of 187 liters per hectare (L/ha). Spray solutions of the experimental compound mixtures were prepared by adding the stock solutions to the appropriate amount of dilution solution to form a 12 mL spray solution in two-way combinations. Formulated compounds were applied to the plant material with an overhead Mandel track sprayer equipped with 8002E nozzles calibrated to deliver 187 L/ha over an application area of 0.503 square meters (m^2) at a spray height of 18 inches (43 centimeters (cm)) above average plant canopy. Control plants were sprayed in the same manner with the solvent blank. Application rates for component (a) are in g ae/ha, and application rates for component (b) are in g ai/ha.
(§3) The treated plants and control plants were placed in a greenhouse as described above and watered by sub-irrigation to prevent wash-off of the test compounds. After 20-22 d, the condition of the test plants as compared with that of the control plants was determined visually and scored on a scale of 0 to 100 percent where 0 corresponds to no injury and 100 corresponds to complete kill. The condition of the test plants was compared with that of the control plants as determined visually and scored on a scale of 0 to 100 percent, where 0 corresponds to no injury and 100 corresponds to complete kill. Colby's equation was used to determine the herbicidal effects expected from the mixtures.
(§4) Compound 1 was formulated as an EC and was combined with florasulam, cloransulam, diclosulam, flumetsulam, penoxsulam, or pyroxsulam. Compound 2 was formulated as an EC and was combined with florasulam or pyroxsulam. The mixtures were applied to winter wheat (TRZAW), common rice (ORYSA), maize (ZEAMX), and the phytotoxicity of the herbicidal compositions was measured. In addition, the efficacy of the herbicidal compositions on blackgrass (Alopecurus myosuroides, ALOMY), pigweed (Amaranthus retrollexus, AMARE), wild oat (Avena fatua, AVEFA), common lambsquarters (Chenopodium album L., CHEAL), thistle (Cirsium arvense CIRAR), nutsedge (Cyperus esculentus, CYPES), barnyardgrass (Echinochloa crus-galli, ECHCG), poinsettia (Euphorbia heterophylla, EPHHL), ivyleaf morning-glory (Ipomoea hederacea, IPOHE), kochia (Kochia scoparia, KCHSC), wild buckwheat (Polygonum convolvulus, POLCO), grain sorghum (Sorghum vulgare, SORVU), chickweed (Stellaria media, STEME), wild pansy (Viola tricolor, VIOTR), was evaluated.
(§5) Weighed amounts of technical material were dissolved in a volume of 97:3 volume per volume (v/v) acetone/dimethyl sulfoxide (DMSO) to stock solutions. […] The concentrated stock solutions were diluted with an aqueous mixture of 1.5% v/v of Agri-dex crop oil concentrate to provide the appropriate application rates. Compound requirements are based upon a 12 milliliter (mL) application volume at a rate of 187 liters per hectare (L/ha). […]

Experiment [2] deals with ivyleaf morning-glory (Ipomoea hederacea, IPOHE). The settings on record: Ipomoea hederacea, post-emergence, read-out: % visual injury Obs. Here is the method:
as §1, §2, §3, §4, §5

The test system of experiment [3] is nutsedge (Cyperus esculentus, CYPES). The conditions noted are these: Cyperus, post-emergence, read-out: % visual injury Obs; for pest or weed control: 4.375 g ai/ha. Here is the method:
as §1
as §2, with “technical” for “technical or formulated”, “material” for “material (emulsifiable concentrate (EC) or soluble concentrate (SL))”
as §3, with “mixtures. […]” for “mixtures.”
as §2

Experiment [4] concerns wild buckwheat (Polygonum convolvulus, POLCO). The settings on record: Fallopia convolvulus, post-emergence, read-out: % visual injury Obs. On the procedure:
as §1, §2
as §3, with “mixtures. […]” for “mixtures.”
(§6) Weighed amounts of technical material were dissolved in a volume of 97:3 volume per volume (v/v) acetone/dimethyl sulfoxide (DMSO) to stock solutions. […] The concentrated stock solutions were diluted with an aqueous mixture of 1.5% v/v of Agri-dex crop oil concentrate to provide the appropriate application rates. Compound requirements are based upon a 12 milliliter (mL) application volume at a rate of 187 liters per hectare (L/ha).

Experiment [5] deals with kochia (Kochia scoparia, KCHSC). The conditions noted are these: Bassia scoparia, post-emergence, read-out: % visual injury Obs. On the procedure: as §1, §2
as §3, with “mixtures. […]” for “mixtures.”
as §6

Experiment [6] concerns thistle (Cirsium arvense, CIRAR). The conditions noted are these: Cirsium arvense, post-emergence, read-out: % visual injury Obs; for pest or weed control: 4.375 g ai/ha. Here is the method: as §1, §2
as §3, with “mixtures. […]” for “mixtures.”
as §6

In experiment [7] the test system is grain sorghum (Sorghum vulgare, SORVU). On the procedure: as §1, §2, §3, §4, §5
The subject of experiment [8] is chickweed (Stellaria media, STEME). The conditions noted are these: Stellaria media, post-emergence, read-out: % visual injury Obs. On the procedure:
as §1, §2, §3, §4, §5

The subject of experiment [9] is common lambsquarters (Chenopodium album L., CHEAL). The settings on record: Chenopodium album, post-emergence, read-out: % visual injury Obs. Here is the method:
as §1, §2, §3, §4, §5

For experiment [10], the system named is poinsettia (Euphorbia heterophylla, EPHHL). The conditions noted are these: Euphorbia heterophylla, post-emergence, read-out: % visual injury Obs. On the procedure:
as §1
as §2, with “technical” for “technical or formulated”, “material” for “material (emulsifiable concentrate (EC) or soluble concentrate (SL))”
as §3, with “mixtures. […]” for “mixtures.”
as §2

The subject of experiment [11] is wild pansy (Viola tricolor, VIOTR). The settings on record: Viola tricolor, post-emergence, read-out: % visual injury Obs. On the procedure:
as §1, §2, §3
as §4, with “Compound 1 was formulated as an EC and was combined with florasulam, cloransulam, diclosulam, flumetsulam, penoxsulam, or pyroxsulam.” left out
as §6

Experiment [12] relates to pigweed (Amaranthus retroflexus, AMARE). The settings on record: Amaranthus retroflexus, post-emergence, read-out: % visual injury Obs. On the procedure:
as §1, §2
as §3, with “mixtures. […]” for “mixtures.”
as §6

In experiment [13] the test system is blackgrass (Alopecurus myosuroides, ALOMY). The settings on record: ALOMY; foramsulfuron 10 g ai/ha. On the procedure:
as §1, §2, §3, §4, §5

As for `COc1cc(OC)nc(NC(=O)NS(=O)(=O)N(C)S(C)(=O)=O)n1` [Amidosulfuron, amidosulfuron], the pest or weed control at […] in experiment [1] (7.5 g ai/ha) came out at 0%; in experiment [2] (7.5 g ai/ha), 35%; in [3] (7.5 g ai/ha), 20%; in experiment [4] (7.5 g ai/ha), 85%; in experiment [5] (7.5 g ai/ha), 10%; in [6] (7.5 g ai/ha), 20%.

For `COc1cc(OC)nc(NC(=O)NS(=O)(=O)c2c(-c3nnn(C)n3)cnn2C)n1` [Azimsulfuron, azimsulfuron], in experiment [7] (SORVU, azimsulfuron 6.25 g ai/ha), the “% visual injury Obs” value is listed as 65%. The pest or weed control is 20% in experiment [8] (STEME, azimsulfuron 6.25 g ai/ha); 93% in [2] (IPOHE, azimsulfuron 6.25 g ai/ha); 10% in [9] (CHEAL, azimsulfuron 6.25 g ai/ha); 10% in experiment [10] (EPHHL, azimsulfuron 6.25 g ai/ha); 60% in experiment [11] (VIOTR, azimsulfuron 6.25 g ai/ha); 0% in experiment [5] (KCHSC, azimsulfuron 6.25 g ai/ha).

For the molecule `CCOc1nc(F)cc2nc(S(=O)(=O)Nc3c(Cl)cccc3Cl)nn12` [Diclosulam, diclosulam], the pest or weed control in experiment [1] (4.375 g ai/ha) turned out to be 30%; in [8] (4.375 g ai/ha) it was 0%; in [2] (4.375 g ai/ha), 93%; in [9] (4.375 g ai/ha), 0%; in experiment [3], 50%; in [10] (4.375 g ai/ha), 60%. Further, the figures for the pest or weed control in [12] (4.375 g ai/ha), in experiment [5] (4.375 g ai/ha) and in experiment [6] were 60%, 50% and 93%, respectively.

For the molecule `Cc1ccn2nc(S(=O)(=O)Nc3c(F)cccc3F)nc2n1` [Flumetsulam, flumetsulam], the “% visual injury Obs” value in experiment [7] (4.375 g ai/ha) worked out at 60%. For the same molecule, the pest or weed control was determined as 10% in experiment [3]; 30% in experiment [10] (4.375 g ai/ha); 70% in [11] (4.375 g ai/ha); 60% in experiment [5] (4.375 g ai/ha); 10% in experiment [6].

In the case of `COc1cc(OC)nc(NC(=O)NS(=O)(=O)c2cc(NC=O)ccc2C(=O)N(C)C)n1` [Foramsulfuron, foramsulfuron], the “% visual injury Obs” value in experiment [13] is recorded as 93%. The pest or weed control at 10 g/ha in experiment [12] (AMARE, foramsulfuron 10 g ai/ha) is 85%.

With `COC(=O)c1ccc(CNS(C)(=O)=O)cc1S(=O)(=O)NC(=O)Nc1nc(OC)cc(OC)n1` [Mesosulfuron, mesosulfuron], in [7] (SORVU, mesosulfuron 3 g ai/ha), the “% visual injury Obs” value stood at 97%. The pest or weed control at 3 g/ha in experiment [4] (POLCO, mesosulfuron 3 g ai/ha) amounted to 20%; in [5] (KCHSC, mesosulfuron 3 g ai/ha) it was 10%.

Consider `COc1cnc(OC)n2nc(NS(=O)(=O)c3c(OCC(F)F)cccc3C(F)(F)F)nc12` [Penoxsulam, penoxsulam], for which the “% visual injury Obs” value in experiment [7] (5 g ai/ha) worked out at 0%. In addition, the pest or weed control at 5 g/ha in experiment [2] (5 g ai/ha) stood at 90%; in experiment [3] (5 g ai/ha), 70%; in [10] (5 g ai/ha), 60%; in experiment [5] (5 g ai/ha), 10%.
